This note sets out measurements from patent EP4775575A1, “COMPOUND USED AS CDK4 KINASE INHIBITOR AND USE THEREOF” (TYK Medicines, Inc., priority 2023, dated 2025).

One data set has as its target T1, CDK6/CyclinD3 (Homo sapiens, UniProt Q00534).
T1 construct: purchased Carna 04-107
Briefly: Kinase activity assay (MSA, EZ Reader) against CDK6. It counts as biochemical. The conditions noted are these: CDK6/CyclinD3 5.00 nM, ATP 350 µM, FL-Peptide34, 10mM MgCl2.

The test system of data set [1] is human mantle cell lymphoma cells JEKO-1. Briefly: Cell anti-proliferation assay (MTT), JEKO-1. The data set is classed as cell-based. The conditions noted are these: Homo sapiens, 120 h, JEKO-1 cells, incubated for 5 days. The procedure, abridged:
(§1)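 Cells in DMEM with 10% FBS were seeded at 50,000 cells/mL and grown overnight at 37 °C, 5% CO2, then treated at 9 concentrations (3-fold serial dilution, 0.1% DMSO medium). MTT was added for 3 h, formazan dissolved in acidified isopropanol/NP-40, and absorbance read at 570 nm.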

Another data set has as its target CDK4/CycD1 (Homo sapiens, UniProt P11802). Briefly: Kinase activity assay (MSA, EZ Reader) against CDK4.
Data set [2] is described as follows: Preclinical pharmacokinetic study in rats. The data set is classed as in vivo, Sprague-Dawley (SD) rats. The conditions noted are these: male SD rats, oral gavage (p.o.) 10 mg/kg, plasma; for AUC(0-t) / Cmax / Tmax: Sprague-Dawley, rat. As for the experimental part: Healthy adult Sprague-Dawley (SD) rats, male, 6-8 weeks old, weighing 200-300 g. EDTA-Na2 anticoagulant. Analytical balance, animal weighing scale, magnetic stirrer, refrigerated centrifuge, single-channel manual pipette, etc. About 10 mg of the test sample was precisely weighed, dissolved in a calculated volume of 5% DMSO, followed by addition of 10% solutol HS-15 and 85% normal saline. The mixture was sonicated and vortexed to homogeneity to obtain a solution with a concentration of 1 mg/mL. The solution was freshly prepared before use. Animals were housed in rat cages and fasted overnight (no less than 10 h) before the test, with free access to water. On the day of the test, animals were weighed and marked on the tail. Blank blood samples were collected before administration. The blood was collected via tail vein. • Route of administration: oral gavage (p.o.) • Dose: 10 mg/kg • Dosing volume: 10 mL/kg • Procedure: The rat was held upright with the left hand wearing bite-resistant glove. A 16-gauge gavage needle was inserted through the mouth into the esophagus. The needle was advanced gently without obvious resistance, and the drug solution was injected into the stomach. Whole blood (0.1 mL) were collected from each test animal before administration and at 0.5 […], and 24 h after administration into EDTA-Na2 anticoagulant tubes. The tubes were inverted 3-4 times for mixing, then centrifuged at 10,000 g for 5 min at 4 °C to separate plasma. Plasma samples were stored at -80 °C until analysis. Blood was collected via tail vein. […] The mixture was vortexed for 2 min and centrifuged at 10,000 g for 10 min at 4 °C. Processing of unknown plasma samples: 25 μL of drug-containing rat plasma was transferred, followed by addition of 25 μL of methanol and 200 μL of internal standard solution. The mixture was vortexed for 2 min and centrifuged at 10,000 g for 10 min at 4 °C. The supernatant was collected for LC-MS/MS analysis. A quantitative method for the determination of the test compound was established using a Shimadzu liquid chromatography system coupled with Triple Quad^TM 6500+ AB mass spectrometer. The concentration of the parent drug in plasma was determined. The plasma concentration-time curve was plotted, and the main pharmacokinetic parameters were calculated using a non-compartmental model in winnonlin Phoenix software.

Data set [3] concerns Human breast cancer cells MCF-7. Briefly: Cell anti-proliferation assay (MTT), MCF-7. The data set is classed as cell-based. Conditions: Homo sapiens, MCF7, 120 h, MCF-7 cells, incubated for 5 days. The method in brief:
as §1

The test system of data set [4] is human ovarian cancer cells A2780. Briefly: Cell anti-proliferation assay (MTT), A2780. It counts as cell-based. Conditions: Homo sapiens, 120 h, incubated for 5 days. The procedure, abridged:
as §1

Where only a bound is given, the exact number is not on record here.

Sequence of CDK4/CycD1 (P11802 whole entry): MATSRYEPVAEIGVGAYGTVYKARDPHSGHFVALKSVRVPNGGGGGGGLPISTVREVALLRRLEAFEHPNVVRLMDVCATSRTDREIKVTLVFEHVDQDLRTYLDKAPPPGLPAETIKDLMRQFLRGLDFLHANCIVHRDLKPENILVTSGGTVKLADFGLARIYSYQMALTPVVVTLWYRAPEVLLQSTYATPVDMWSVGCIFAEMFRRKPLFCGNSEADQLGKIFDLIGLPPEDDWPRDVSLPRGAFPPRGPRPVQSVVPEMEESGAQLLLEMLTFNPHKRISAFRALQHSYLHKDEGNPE
T1 sequence (Q00534 whole entry): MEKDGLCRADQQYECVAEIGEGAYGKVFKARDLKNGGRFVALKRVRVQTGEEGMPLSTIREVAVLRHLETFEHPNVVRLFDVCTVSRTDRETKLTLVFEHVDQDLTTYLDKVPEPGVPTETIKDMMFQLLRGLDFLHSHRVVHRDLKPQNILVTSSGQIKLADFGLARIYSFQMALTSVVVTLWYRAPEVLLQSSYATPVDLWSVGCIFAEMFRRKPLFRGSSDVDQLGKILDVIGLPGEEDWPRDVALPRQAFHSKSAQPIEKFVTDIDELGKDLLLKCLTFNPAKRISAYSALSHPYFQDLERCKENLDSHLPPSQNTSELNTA
T1 sequence (P30281 whole entry partner): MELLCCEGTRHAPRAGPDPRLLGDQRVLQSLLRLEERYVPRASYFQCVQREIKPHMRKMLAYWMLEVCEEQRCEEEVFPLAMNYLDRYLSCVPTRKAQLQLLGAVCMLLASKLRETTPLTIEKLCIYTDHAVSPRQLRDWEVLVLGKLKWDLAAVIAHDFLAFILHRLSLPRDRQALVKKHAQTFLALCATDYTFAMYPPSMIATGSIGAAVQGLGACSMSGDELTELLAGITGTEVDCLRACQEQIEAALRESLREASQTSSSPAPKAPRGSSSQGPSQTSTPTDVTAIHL

A word on the IC50: it is the concentration that inhibits the measured activity by half. The term AUC(0-t) denotes the area under the concentration-time curve up to a stated or last time point. High values mean more exposure, low ones less exposure. Usually Cmax stands for the maximum level reached in the sampled fluid or tissue. For orientation: Tmax means the time at which the peak concentration occurs. Consider `C[C@H]1CCN(CC#N)c2nc3c(F)cc(-c4nc(N[C@@H]5CCOC[C@H]5O)ncc4Cl)cc3n21` [TC-2], for which the IC50 at CDK6/CyclinD3 was 0.0757 µM; in data set [1] it was no more than 0.5 µM; against CDK4/CycD1 it was 0.0045 µM; in data set [3], 0.5 to 2 µM; in data set [4] it was no more than 0.5 µM. The same compound registered an exposure AUC(0-t) in data set [2] of 1240 ng·h/mL. The compound also had a Cmax in data set [2] of 400 ng/mL. Further, the Tmax in data set [2] is 0.67 h. The “HL_” value in data set [2] is 2.87 h.
Consider `C[C@H]1CCN(C)c2nc3c(F)cc(-c4cc(N[C@@H]5CCOC[C@H]5O)ncc4Cl)cc3n21` [TB-149], for which the 50% inhibitory concentration (IC50) was 0.0908 µM on CDK6/CyclinD3; no more than 0.5 µM in data set [1]; 0.0053 µM on CDK4/CycD1; no more than 0.5 µM in data set [3]; no more than 0.5 µM in data set [4]. For the same compound, the AUC(0-t) in data set [2] is 25400 ng·h/mL. This compound also returned a Cmax in data set [2] of 4160 ng/mL. Besides, the Tmax in data set [2] was determined as 1.17 h. Besides, in data set [2], the “HL_” value turned out to be 1.99 h.
Consider `C[C@H]1CCN(c2ccccc2F)c2nc3c(F)cc(-c4nc(N[C@@H]5CCOC[C@H]5O)ncc4Cl)cc3n21` [TC-12], for which the IC50 on CDK6/CyclinD3 is 0.0457 µM; in data set [1] it was no more than 0.5 µM; at CDK4/CycD1, 0.0019 µM; in data set [3] it was no more than 0.5 µM; in data set [4], no more than 0.5 µM. Moreover, in data set [2], the AUC(0-t) was determined as 1290 ng·h/mL. This compound also gave a Cmax in data set [2] of 417 ng/mL. Also, the Tmax in data set [2] came out at 1 h. For the same compound, the “HL_” value in data set [2] amounted to 2.55 h.
For `C[C@H]1CCN(C)c2nc3c(F)cc(-c4nc(Nc5ccncc5)ncc4Cl)cc3n21` [TB-137, (S)-5-chloro-4-(9-fluoro-1,4-dimethyl-1,2,3,4-tetrahydrobenzo[4,5]imidazo[1,2-a]pyrimidin-7-yl)-N-(pyridin-4-yl)pyrimidin-2-amine], the 50% inhibitory concentration (IC50) is 0.175 µM at CDK6/CyclinD3; no more than 0.5 µM in data set [1]; 0.0283 µM against CDK4/CycD1; no more than 0.5 µM in data set [3]; no more than 0.5 µM in data set [4]. The same compound yielded an AUC(0-t) in data set [2] of 3670 ng·h/mL. The compound also gave a Cmax in data set [2] of 1240 ng/mL. Besides, the Tmax in data set [2] came out at 0.83 h. Moreover, the “HL_” value in data set [2] is listed as 4.10 h.
On to `C[C@H]1CCN(c2ccccc2)c2nc3c(F)cc(-c4nc(N[C@@H]5CCOC[C@H]5O)ncc4Cl)cc3n21` [TA-33], for which, at CDK6/CyclinD3, 0.0942 µM corresponded to half-maximal inhibition (IC50). For the same compound, at CDK4/CycD1, the half-inhibitory concentration (IC50) came to 0.0034 µM. Also, in data set [2], the exposure AUC(0-t) stood at 2170 ng·h/mL, the Cmax was found to be 262 ng/mL and the Tmax was 4.67 h.
Regarding `CCS(=O)(=O)N1CCC(Nc2ncc(Cl)c(-c3cc(F)c4nc(N5CCOC5=O)n(C(C)C)c4c3)n2)CC1` [TB-31], the IC50 against CDK6/CyclinD3 is 0.182 µM; in data set [1], no more than 0.5 µM; at CDK4/CycD1, 0.0153 µM; in data set [3], no more than 0.5 µM; in data set [4], no more than 0.5 µM. The compound also gave an AUC(0-t) in data set [2] of 4890 ng·h/mL. Also, the peak level in data set [2] (Cmax) was 923 ng/mL. Moreover, the Tmax in data set [2] was 4 h. In data set [2], the “HL_” value was 1.34 h.
For `CC(C)n1c(N2CCOCC2)nc2c(F)cc(-c3nc(N[C@@H]4CCOC[C@H]4O)ncc3Cl)cc21` [TB-12, (3S,4R)-4-((5-chloro-4-(4-fluoro-1-isopropyl-2-morpholino-1H-benzo[d]imidazol-6-yl)pyrimidin-2-yl)amino)tetrahydro-2H-pyran-3-ol], the IC50 against CDK6/CyclinD3 was 0.151 µM; in data set [1], no more than 0.5 µM; at CDK4/CycD1, 0.00601 µM; in data set [3], no more than 0.5 µM; in data set [4], no more than 0.5 µM. Further, the AUC(0-t) in data set [2] stood at 4500 ng·h/mL. Moreover, the Cmax in data set [2] worked out at 677 ng/mL. Moreover, the Tmax in data set [2] was found to be 1.5 h. For the same compound, in data set [2], the “HL_” value is listed as 3.14 h.
As to `C[C@H]1CCN(C2CC2)c2nc3c(F)cc(-c4nc(N[C@@H]5CCOC[C@H]5O)ncc4Cl)cc3n21` [TA-4], the IC50 on CDK6/CyclinD3 is 0.0639 µM; in data set [1], no more than 0.5 µM; against CDK4/CycD1 it was 0.0044 µM; in data set [3] it was no more than 0.5 µM; in data set [4], no more than 0.5 µM. This compound also registered an AUC(0-t) in data set [2] of 16200 ng·h/mL. The Cmax in data set [2] amounted to 4430 ng/mL. Also, the time of peak concentration (Tmax) in data set [2] was determined as 1 h. Further, the “HL_” value in data set [2] was found to be 3.19 h.
Turning to `CC(C)n1c(N2CCOC2=O)nc2c(F)cc(-c3nc(N[C@@H]4CCOC[C@H]4O)ncc3Cl)cc21` [TB-24], the IC50 against CDK6/CyclinD3 was 0.143 µM; in data set [1] it was no more than 0.5 µM; against CDK4/CycD1, 0.0101 µM; in data set [3], no more than 0.5 µM; in data set [4], no more than 0.5 µM. This compound yielded an AUC(0-t) in data set [2] of 4500 ng·h/mL. In addition, the highest level in data set [2] (Cmax) was 677 ng/mL. Further, the Tmax in data set [2] came out at 1.67 h. Further, the “HL_” value in data set [2] stood at 3.14 h.
